Values quoted from earlier work in patent US11925657B2, “Formulations and methods for treating conditions of the eye” (Sight Sciences, Inc., priority 2020, dated 2024).

Experiments:
[1] = antibiotic levels of azithromycin (1%)
[2] = lower concentrations, e.g. 0.1% and 0.35%

Compound	phase transition temperature of meibum lipids and lipid ordering [1]	efficacy toward intended rosacea treatment [2]
CC[C@H]1OC(=O)[C@H](C)[C@@H](O[C@H]2C[C@@](C)(OC)[C@@H](O)[C@H](C)O2)[C@H](C)[C@@H](O[C@@H]2O[C@H](C)C[C@H](N(C)C)[C@H]2O)[C@](C)(O)C[C@@H](C)CN(C)[C@H](C)[C@@H](O)[C@]1(C)O [azithromycin]	can improve	
ivermectin		lose efficacy
